Results taken from patent US6355669B1, “Retinoic acid agonists as preventive and therapeutic agents for nephritis” (Eisai Co., Ltd., priority 1997, dated 2002).

Assays:
[1] = test system: mouse allergic cerebrospinal meningitis; conditions: Racke et al., J. Immunol., 154, 450-458, 1995; cited from earlier work
rat adjuvant arthritis = conditions: Brinckerhoff et al., Science 221, 756, 1983; cited from earlier work
mouse B lymphocytes [2] = conditions: literature reports (Apfel 1992; Blomhoff 1992; Fahlman 1995); cited from earlier work
human B lymphocytes = conditions: literature reports (Apfel 1992; Blomhoff 1992; Fahlman 1995); cited from earlier work
[3] = test system: BALB/c mouse spleen cells; experiment: In vitro production of antibody (total IgG) in LPS-stimulated mouse spleen cells; assay type: cell-based; conditions: for Total IgG: LPS 5 μg/ml, 5 days
Protocol: Spleen cells from 7-week-old female BALB/c mouse were cultured at 37° C. in the presence of 5% CO2 for 5 days along with 5 μg/ml lipopolysaccharide (LPS) in RPMI 1640 medium containing 10% fetal bovine serum. After culture, the total amount of IgG in the supernatant was quantified by specific ELISA techniques.

[4] = test system: anti-collagen antibody titer; conditions: rat model with collagen arthritis; Kuwabara et al., FEBS Letters 1996; cited from earlier work
[5] = test system: anti-rabbit γ-globulin IgG2a antibody titer; experiment: Rat model producing antibody (anti-rabbit γ-globulin antibody titer in serum, ELISA); assay type: in vivo, Sprague-Dawley strain rats; conditions: dose 0.3 mg/kg oral once every day for 14 days; 14th day after immunization
Protocol: Sprague-Dawley strain rats were immunized by subcutaneously administering rabbit γ-globulin in a dose of 4 mg/rat along with Freund's complete adjuvant into the bottoms of their both hind legs. On the 14th day after the rats were immunized, blood was collected from their tail veins and examined for anti-rabbit γ-globulin antibody titer in serum by the ELISA method.
The test compounds A, B, C and D were suspended respectively in 0.5% aqueous methyl cellulose solution and orally administered once every day for 14 days from the day on which the animals were immunized with rabbit γ-globulin. The medium was administered into the control group.

anti-ss DNA antibody = experiment: Mouse model with spontaneous onset of SLE: production of anti-ss DNA antibody; assay type: in vivo, female (NZB×NZW) F1 mice; conditions: 0.03 mg/kg oral; after 16 weeks of administration
Protocol: (§1) In this experiment, female (NZB×NZW) F1 mice were used. Administration of each test compound was initiated at the age of 16 weeks, and blood was collected at predetermined intervals from the orbital venous plexus of the animals under anesthesia with ether and examined for anti-DNA (single-stranded chain: ss, double stranded chain: ds) antibody titer in serum. Further, urine was collected and measured for urine protein.
(§2) The medium was administered into the control group.

[6] = test system: albuminuria in (NZB×NZW)F1 mice; experiment: Mouse model with spontaneous onset of SLE: urine protein / onset of albuminuria; assay type: in vivo, female (NZB×NZW) F1 mice; conditions: dose 0.03 mg/kg
Description: as §1
The test compounds A, B and D were suspended in 0.5% aqueous methyl cellulose solution and orally administered daily once into the animals for 6 days/week for 18 weeks. The medium was administered into the control group.
The effect of each compound on the onset of albuminuria after 18 weeks of administration (in 34-week-old animals) is shown in Table 2.

[7] = test system: accelerated Masugi nephritis; experiment: Rat model with accelerated Masugi nephritis (proteins excreted in urine for 24 hours); assay type: in vivo, Sprague-Dawley strain rats; conditions: dose 0.3 mg/kg, oral once every day; compared with the control group; 0.3 mg/kg
Protocol: Sprague-Dawley strain rats were immunized by subcutaneously administering rabbit γ-globulin in a dose of 4 mg/rat along with Freund's complete adjuvant into the bottoms of their both hind legs. On the 5th day after the rats were immunized, 1 ml of anti-rat glomerular basement membrane rabbit serum diluted 6- or 8-fold was administered via tail veins into the animals. On the 8th day, the rats were forced to be orally administered 8 ml sterilized water and then placed in a metabolism cage, and their urine was collected for 24 hours during which the animals were allowed neither food nor water. As the indicator of the model with accelerated Masugi nephritis, the amount of proteins excreted in urine for 24 hours was used.
as §2

anti-ds DNA antibody = experiment: Mouse model with spontaneous onset of SLE: production of anti-ds DNA antibody; assay type: in vivo, female (NZB×NZW) F1 mice; conditions: 0.03 mg/kg oral; after 16 weeks of administration
Protocol: as §1, §2

mouse B lymphocytes [8] = conditions: adding RARα antagonist; Apfel 1992; cited from earlier work
[9] = after 18 weeks of administration (34-week-old), 8 animals

CC1=C(/C=C/C(C)=C/C=C/C(C)=C/C(=O)Nc2ccc(O)cc2)C(C)(C)CCC1
neural symptoms of mouse allergic cerebrospinal meningitis [1]: ameliorated

CC1=C(/C=C/C(C)=C/C=C/C(C)=C\C(=O)O)C(C)(C)CCC1 [13-cis-retinoic acid]
neural symptoms of mouse allergic cerebrospinal meningitis [1]: ameliorated
secondary inflammations in rat adjuvant arthritis (rat adjuvant arthritis): significantly suppressed

CC1=C(/C=C/C(C)=C/C=C/C(C)=C/C(=O)O)C(C)(C)CCC1 [All-trans retinoic acid, all-trans-retinoic acid]
polyclonal division of mouse B lymphocytes (mouse B lymphocytes [2]): inhibits
polyclonal division of human B lymphocytes (human B lymphocytes): inhibits
in vitro production of antibody in mice (in words) ([3]; 0.1 and 1 nM all-trans-retinoic acid): inhibited
Total IgG ([3]; all-trans retinoic acid 0.1 nM with Ro-41-5253 20 nM): 9.8 ng/mL
Total IgG ([3]; all-trans retinoic acid 0.1 nM with Ro-41-5253 200 nM): 26.4 ng/mL
Total IgG ([3]; all-trans retinoic acid 0.1 nM with Ro-41-5253 2000 nM): 23.4 ng/mL
Total IgG ([3]; all-trans retinoic acid 0.1 nM, Ro-41-5253 0 nM): 11.3 ng/mL
Total IgG ([3]; all-trans retinoic acid 1 nM with Ro-41-5253 20 nM): 6.4 ng/mL
Total IgG ([3]; all-trans retinoic acid 1 nM with Ro-41-5253 200 nM): 7.2 ng/mL
Total IgG ([3]; all-trans retinoic acid 1 nM with Ro-41-5253 2000 nM): 21.5 ng/mL
Total IgG ([3]; all-trans retinoic acid 1 nM, Ro-41-5253 0 nM): 7.3 ng/mL

CC1(C)CCC(C)(C)c2cc(NC(=O)c3ccc(C(=O)O)cc3)ccc21 [Am80]
production of anti-collagen antibody titer in blood [4]: strongly inhibited

Cc1ccc(C)c2oc(-c3ccc(-c4ccc(C(=O)O)cc4)[nH]3)cc12 [Compound A, 4-{2-[5-(4,7-dimethylbenzofuran-2-yl)pyrrolyl]}benzoic acid]
effect on anti-rabbit γ-globulin IgG2a antibody titer [5]: showed a tendency to inhibit
inhibition of production of anti-ss DNA antibody (in words) (anti-ss DNA antibody): significant inhibition
onset of albuminuria (in words) ([6]; after 18 weeks of administration): inhibited
Number of animals with Concentration of Urine Protein (mg/ml) <0.3 [6, 9]: 6
Number of animals with Concentration of Urine Protein (mg/ml) >0.3 [6, 9]: 0
Number of animals with Concentration of Urine Protein (mg/ml) >1 [6, 9]: 1
Number of animals with Concentration of Urine Protein (mg/ml) >3 [6, 9]: 1
Number of animals with Concentration of Urine Protein (mg/ml) >10 [6, 9]: 0
Degree of Inhibition of Albuminuria (%) [7]: 69.2%
inhibition of production of anti-ds DNA antibody (in words) (anti-ds DNA antibody): significant inhibition

CCCCCCCOc1cc2c(cc1/C(C)=C/c1ccc(C(=O)O)cc1)C(C)(C)CCS2(=O)=O [Ro-41-5253]
Total IgG ([3]; Ro-41-5253 20 nM, all-trans retinoic acid 0 nM): 29.2 ng/mL
Total IgG ([3]; Ro-41-5253 200 nM, all-trans retinoic acid 0 nM): 30.2 ng/mL
Total IgG ([3]; Ro-41-5253 2000 nM, all-trans retinoic acid 0 nM): 18.0 ng/mL
recovery of the inhibitory action of all-trans-retinoic acid on antibody production (in words) ([3]; adding 200 nM and 2000 nM Ro-41-5253): completely recovered
recovery of the inhibitory action of retinoic acid on differentiation of mouse B lymphocytes (mouse B lymphocytes [8]): recovered almost perfectly
